Laboratory results from article doi:10.1101/2023.03.24.534094v2 (biorxiv, 2023).
Like-named read-outs stand apart in the source and are kept apart here.

How the values were obtained:
Assay in all cases: biochemical
[1] = target: CaMK1g (Homo sapiens, UniProt Q96NX5)
[2] = target: T1, DCAMKL1 (Homo sapiens, UniProt O15075)
T1 sequence (O15075 1-740): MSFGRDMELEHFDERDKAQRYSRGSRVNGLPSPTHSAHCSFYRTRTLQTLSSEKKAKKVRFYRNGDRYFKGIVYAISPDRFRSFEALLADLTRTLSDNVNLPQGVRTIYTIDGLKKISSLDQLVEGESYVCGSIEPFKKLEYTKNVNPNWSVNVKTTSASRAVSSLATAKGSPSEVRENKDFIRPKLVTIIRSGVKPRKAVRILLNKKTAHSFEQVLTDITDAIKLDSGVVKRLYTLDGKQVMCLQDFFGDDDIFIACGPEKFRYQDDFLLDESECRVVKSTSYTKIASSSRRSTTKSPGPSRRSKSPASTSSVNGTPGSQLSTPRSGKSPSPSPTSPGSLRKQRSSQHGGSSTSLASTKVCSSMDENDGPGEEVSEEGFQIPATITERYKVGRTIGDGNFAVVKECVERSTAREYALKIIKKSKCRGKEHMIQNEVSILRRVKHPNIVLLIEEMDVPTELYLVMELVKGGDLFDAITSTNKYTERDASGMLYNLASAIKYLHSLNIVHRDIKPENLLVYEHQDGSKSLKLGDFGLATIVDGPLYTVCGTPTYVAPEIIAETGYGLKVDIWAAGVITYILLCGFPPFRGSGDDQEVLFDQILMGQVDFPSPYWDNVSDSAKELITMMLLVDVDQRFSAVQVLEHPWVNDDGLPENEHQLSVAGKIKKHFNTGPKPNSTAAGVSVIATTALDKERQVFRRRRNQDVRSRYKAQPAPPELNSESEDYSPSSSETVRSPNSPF

[3] = target: T2, DMPK1 (Homo sapiens, UniProt Q09013)
T2 sequence (Q09013 1-629): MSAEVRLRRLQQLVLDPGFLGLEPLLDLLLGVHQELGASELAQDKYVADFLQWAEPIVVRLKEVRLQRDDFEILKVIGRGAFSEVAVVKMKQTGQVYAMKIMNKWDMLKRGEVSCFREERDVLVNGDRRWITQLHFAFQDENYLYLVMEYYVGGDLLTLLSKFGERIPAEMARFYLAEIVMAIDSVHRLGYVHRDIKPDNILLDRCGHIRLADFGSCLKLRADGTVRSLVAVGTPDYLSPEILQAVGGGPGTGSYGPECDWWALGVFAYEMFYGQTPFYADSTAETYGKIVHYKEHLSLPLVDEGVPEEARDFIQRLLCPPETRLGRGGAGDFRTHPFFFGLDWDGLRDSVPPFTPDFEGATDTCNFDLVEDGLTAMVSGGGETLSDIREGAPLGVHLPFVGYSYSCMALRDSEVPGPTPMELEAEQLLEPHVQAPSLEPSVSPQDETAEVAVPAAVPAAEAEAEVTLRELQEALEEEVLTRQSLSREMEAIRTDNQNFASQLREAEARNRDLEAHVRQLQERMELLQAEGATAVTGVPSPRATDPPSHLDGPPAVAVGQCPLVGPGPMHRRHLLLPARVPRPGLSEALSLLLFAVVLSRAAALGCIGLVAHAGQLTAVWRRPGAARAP

[4] = target: GPRK5 (Homo sapiens, UniProt P34947)
[5] = target: T3, NEK2 (Homo sapiens, UniProt P51955)
T3 sequence (P51955 1-445): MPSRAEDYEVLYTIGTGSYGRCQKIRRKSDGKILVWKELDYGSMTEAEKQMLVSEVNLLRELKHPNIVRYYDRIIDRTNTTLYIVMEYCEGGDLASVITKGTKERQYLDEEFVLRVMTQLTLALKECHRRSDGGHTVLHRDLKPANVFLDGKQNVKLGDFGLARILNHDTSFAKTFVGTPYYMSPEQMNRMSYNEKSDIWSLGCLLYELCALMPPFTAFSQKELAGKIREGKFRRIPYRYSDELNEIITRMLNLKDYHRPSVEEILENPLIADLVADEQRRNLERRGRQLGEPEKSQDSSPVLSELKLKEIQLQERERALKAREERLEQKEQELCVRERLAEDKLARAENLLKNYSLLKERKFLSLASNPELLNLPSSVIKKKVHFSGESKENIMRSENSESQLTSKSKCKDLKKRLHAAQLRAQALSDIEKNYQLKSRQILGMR

[6] = target: T4, ULK3 (Homo sapiens, UniProt Q6PHR2)
T4 sequence (Q6PHR2 1-472): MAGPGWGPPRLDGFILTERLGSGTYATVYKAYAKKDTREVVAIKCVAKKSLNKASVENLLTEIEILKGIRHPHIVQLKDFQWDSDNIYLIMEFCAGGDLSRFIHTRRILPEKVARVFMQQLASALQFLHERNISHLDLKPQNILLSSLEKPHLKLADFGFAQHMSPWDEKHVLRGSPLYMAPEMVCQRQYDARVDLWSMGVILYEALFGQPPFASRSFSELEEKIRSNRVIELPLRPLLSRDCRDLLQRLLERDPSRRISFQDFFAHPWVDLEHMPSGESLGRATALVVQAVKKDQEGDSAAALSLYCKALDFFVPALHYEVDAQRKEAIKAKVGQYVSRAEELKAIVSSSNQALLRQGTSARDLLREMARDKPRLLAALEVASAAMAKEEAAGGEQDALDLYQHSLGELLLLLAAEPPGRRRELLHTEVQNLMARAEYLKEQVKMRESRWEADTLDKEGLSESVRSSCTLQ

CaMK1g, sequence (Q96NX5 whole entry): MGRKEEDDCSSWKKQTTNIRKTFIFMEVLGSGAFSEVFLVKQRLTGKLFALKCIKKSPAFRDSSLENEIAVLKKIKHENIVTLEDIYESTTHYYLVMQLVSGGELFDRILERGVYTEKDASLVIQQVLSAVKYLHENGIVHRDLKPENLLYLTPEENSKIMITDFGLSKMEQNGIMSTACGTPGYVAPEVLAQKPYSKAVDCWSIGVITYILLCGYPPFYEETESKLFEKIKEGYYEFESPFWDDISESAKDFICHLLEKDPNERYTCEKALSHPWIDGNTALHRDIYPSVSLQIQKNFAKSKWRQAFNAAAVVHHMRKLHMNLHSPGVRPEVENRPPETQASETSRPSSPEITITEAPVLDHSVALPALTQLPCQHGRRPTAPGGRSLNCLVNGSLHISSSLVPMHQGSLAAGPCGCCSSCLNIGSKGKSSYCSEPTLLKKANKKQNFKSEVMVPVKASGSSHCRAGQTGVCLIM
GPRK5, sequence (P34947 whole entry): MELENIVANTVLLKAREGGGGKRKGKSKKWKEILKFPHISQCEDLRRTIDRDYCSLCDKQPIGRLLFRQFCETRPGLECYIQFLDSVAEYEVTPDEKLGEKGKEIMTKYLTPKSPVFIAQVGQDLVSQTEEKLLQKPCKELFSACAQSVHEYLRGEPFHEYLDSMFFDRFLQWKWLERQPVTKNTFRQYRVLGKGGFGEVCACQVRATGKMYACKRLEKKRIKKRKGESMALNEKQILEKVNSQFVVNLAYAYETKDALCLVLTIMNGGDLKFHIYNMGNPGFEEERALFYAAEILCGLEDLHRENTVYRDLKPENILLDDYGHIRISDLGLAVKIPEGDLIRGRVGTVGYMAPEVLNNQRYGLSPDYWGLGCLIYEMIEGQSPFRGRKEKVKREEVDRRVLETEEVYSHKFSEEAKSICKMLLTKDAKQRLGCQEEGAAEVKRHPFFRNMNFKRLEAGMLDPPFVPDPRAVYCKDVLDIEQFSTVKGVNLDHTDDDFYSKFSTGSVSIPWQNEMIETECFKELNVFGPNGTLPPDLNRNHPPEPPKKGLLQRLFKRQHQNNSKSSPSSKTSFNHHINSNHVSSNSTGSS

CNc1ncc2cc(-c3cc(Cl)ccc3Br)c(=O)n(CCCCN)c2n1 [compound 10, 8-(4-Aminobutyl)-6-(2-bromo-5-chlorophenyl)-2-(methylamino)pyrido[2,3-d]pyrimidin-7(8H)-one]
ΔTm at 10 µM ([1]; read-out: dTm 10): 0.7 °C
ΔTm at 10 µM ([2]; read-out: dTm 10): 0.9 °C
ΔTm at 10 µM ([3]; read-out: dTm 10): 1.8 °C
ΔTm at 10 µM ([4]; read-out: dTm 10): 0.6 °C
ΔTm at 10 µM ([5]; read-out: dTm 10): 2.1 °C
ΔTm at 10 µM ([6]; read-out: dTm 10): 1.1 °C

CNc1ncc2cc(-c3cc(Cl)ccc3Cl)c(=O)n(CCCCN)c2n1 [compound 8, 8-(4-Aminobutyl)-6-(2,5-dichlorophenyl)-2-(methylamino)pyrido[2,3-d]pyrimidin-7(8H)-one]
ΔTm at 10 µM ([1]; read-out: dTm 8): 1.1 °C
ΔTm at 10 µM ([2]; read-out: dTm 8): 1.2 °C
ΔTm at 10 µM ([3]; read-out: dTm 8): 1.3 °C
ΔTm at 10 µM ([4]; read-out: dTm 8): 0.6 °C
ΔTm at 10 µM ([5]; read-out: dTm 8): 1.9 °C
ΔTm at 10 µM ([6]; read-out: dTm 8): 1 °C

CNc1ncc2cc(-c3cc(C(F)(F)F)ccc3Cl)c(=O)n(CCCCN)c2n1 [compound 9, 8-(4-Aminobutyl)-6-(2-chloro-5-(trifluoromethyl)phenyl)-2-(methylamino)pyrido[2,3-d]pyrimidin-7(8H)-one]
ΔTm at 10 µM ([1]; read-out: dTm 9): 0.6 °C
ΔTm at 10 µM ([2]; read-out: dTm 9): 0.5 °C
ΔTm at 10 µM ([3]; read-out: dTm 9): 1.4 °C
ΔTm at 10 µM ([4]; read-out: dTm 9): 0.3 °C
ΔTm at 10 µM ([5]; read-out: dTm 9): 1.3 °C
ΔTm at 10 µM ([6]; read-out: dTm 9): 0.6 °C

CNc1ncc2cc(-c3cc(Br)ccc3Br)c(=O)n(CCCCN)c2n1 [compound 11, 8-(4-Aminobutyl)-6-(2,5-dibromophenyl)-2-(methylamino)pyrido[2,3-d]pyrimidin-7(8H)-one]
ΔTm at 10 µM ([1]; read-out: dTm 11): 0.8 °C
ΔTm at 10 µM ([2]; read-out: dTm 11): 1.1 °C
ΔTm at 10 µM ([3]; read-out: dTm 11): 1.7 °C
ΔTm at 10 µM ([4]; read-out: dTm 11): 0.7 °C
ΔTm at 10 µM ([5]; read-out: dTm 11): 1.7 °C
ΔTm at 10 µM ([6]; read-out: dTm 11): 1.3 °C

CNc1ncc2cc(-c3cc(F)c(-c4cccc(C)n4)cc3F)c(=O)n(CCCCN)c2n1 [compound 12, 8-(4-Aminobutyl)-6-(2,5-difluoro-4-(6-methylpyridin-2-yl)phenyl)-2-(methylamino)pyrido[2,3-d]pyrimidin-7(8H)-one]
ΔTm at 10 µM ([1]; read-out: dTm 12): 3.4 °C
ΔTm at 10 µM ([2]; read-out: dTm 12): -1.6 °C
ΔTm at 10 µM ([3]; read-out: dTm 12): -0.1 °C
ΔTm at 10 µM ([4]; read-out: dTm 12): -0.4 °C
ΔTm at 10 µM ([5]; read-out: dTm 12): 7.2 °C
ΔTm at 10 µM ([6]; read-out: dTm 12): 6.7 °C
